{"source": "patent US7705004B2", "about": "“Protein kinase inhibitors” (Portola Pharmaceuticals, Inc., priority 2007, dated 2010)"}
{"tested_on": "human platelet-rich plasma (PRP)", "assay": "Convulxin-induced aggregation assay (cuvette light transmittance)", "type": "cell-based", "details": "125-250 ng/mL Convulxin, read-out: IC50, inhibition of convulxin-induced aggregation of platelet rich plasma", "experimental": "For preparation of human platelet-rich plasma (PRP) for aggregation assays, human venous blood was collected from healthy, drug-free volunteers into 0.38% sodium citrate (0.013 M, pH 7.0 final). PRP was prepared by centrifugation of whole blood at 160×g for 20 minutes at room temperature. The PRP layer was removed, transferred to a new tube, and the platelet count was adjusted, if necessary, to achieve a platelet concentration of ˜3×10^8 platelets/mL using platelet-poor plasma (PPP). PPP was prepared by centrifugation of the remaining blood sample (after removal of PRP) for 20 minutes at 800×g. This preparation of PRP may be subsequently used for aggregation assays in either a 96-well plate or standard cuvette aggregometry.\nInhibition of Convulxin-induced aggregation was determined by cuvette light transmittance aggregation assays. Serial dilutions (1:2) of test compounds were prepared in 30% DMSO in a 96-well V-bottom plate (final DMSO concentration in the cuvette was 0.3%). The test compound (5 μl of serial dilutions in DMSO) was preincubated with PRP for 20 minutes prior to initiation of the aggregation reactions, which were performed in a ChronoLog aggregometer by addition of agonist (125-250 ng/mL Convulxin) to 495 μL of PRP at 37° C. The aggregation reaction was recorded for 4 minutes, and the maximum extent of aggregation was determined by the difference in extent of aggregation at baseline, compared to the maximum aggregation that occurred during the 4 minute period of the assay. Inhibition of aggregation was calculated as the maximum aggregation observed in the presence of inhibitor, compared to that in the absence of inhibitor. IC50s were derived by non-linear regression analysis.", "units": {"IC50": "µM"}}
{"compound": "CC(=O)N1CCN(c2ccc(Nc3nc(Nc4ccc5cnn(C)c5c4)c4cc[nH]c4n3)cc2)CC1", "note": "[Compound 22-2, 1-(4-(4-(4-(1-methyl-1H-indazol-6-ylamino)-7H-pyrrolo[2,3-d]pyrimidin-2-ylamino)phenyl)piperazin-1-yl)ethanone]", "IC50": "≤ 50"}
{"compound": "OC1CCN(c2ccc(Nc3nc(Nc4ccc5cn[nH]c5c4)c4cc[nH]c4n3)cc2)CC1", "note": "[Compound 7-1, 1-(4-(4-(1H-indazol-6-ylamino)-7H-pyrrolo[2,3-d]pyrimidin-2-ylamino)phenyl)piperidin-4-ol]", "IC50": "≤ 50"}
{"compound": "Cn1ncc2cc(Nc3nc(Nc4ccc(C(N)=O)cc4)nc4[nH]ccc34)ccc21", "note": "[Compound 25-1, 4-(4-(1-methyl-1H-indazol-5-ylamino)-7H-pyrrolo[2,3-d]pyrimidin-2-ylamino)benzamide]", "IC50": "≤ 50"}
{"compound": "CSc1ccc(Nc2nc(Nc3ccc4cn[nH]c4c3)c3cc[nH]c3n2)cc1", "note": "[Compound 10-1, N4-(1H-indazol-6-yl)-N2-(4-(methylthio)phenyl)-7H-pyrrolo[2,3-d]pyrimidine-2,4-diamine]", "IC50": "≤ 50"}
{"compound": "CS(=O)(=O)c1ccc(Nc2nc(Nc3ccc4cn[nH]c4c3)c3cc[nH]c3n2)cc1", "note": "[Compound 9-1, N4-(1H-indazol-6-yl)-N2-(4-(methylsulfonyl)phenyl)-7H-pyrrolo[2,3-d]pyrimidine-2,4-diamine]", "IC50": "≤ 50"}
{"compound": "c1cc2c(Nc3ccc4ncsc4c3)nc(Nc3ccc4cn[nH]c4c3)nc2[nH]1", "note": "[Compound 20-1, N4-(benzo[d]thiazol-6-yl)-N2-(1H-indazol-6-yl)-7H-pyrrolo[2,3-d]pyrimidine-2,4-diamine]", "IC50": "≤ 50"}
{"compound": "CS(=O)(=O)N1CCN(c2ccc(Nc3nc(Nc4ccc5cn[nH]c5c4)c4cc[nH]c4n3)cc2)CC1", "note": "[Compound 8-1, N4-(1H-indazol-6-yl)-N2-(4-(4-(methylsulfonyl)piperazin-1-yl)phenyl)-7H-pyrrolo[2,3-d]pyrimidine-2,4-diamine]", "IC50": "≤ 50"}
{"compound": "CC(=O)N1CCN(c2ccc(Nc3nc(Nc4ccc5c(C)n[nH]c5c4)c4cc[nH]c4n3)cc2)CC1", "note": "[Compound 2-1, 1-(4-(4-(4-(3-methyl-1H-indazol-6-ylamino)-7H-pyrrolo[2,3-d]pyrimidin-2-ylamino)phenyl)piperazin-1-yl)ethanone]", "IC50": "≤ 50"}
{"compound": "CC(=O)N(C)c1ccc(Nc2nc(Nc3ccc4cn[nH]c4c3)c3cc[nH]c3n2)cc1", "note": "[Compound 6-1, N-(4-(4-(1H-indazol-6-ylamino)-7H-pyrrolo[2,3-d]pyrimidin-2-ylamino)phenyl)-N-methylacetamide]", "IC50": "≤ 50"}
{"compound": "c1cc2c(Nc3ccc4cn[nH]c4c3)nc(Nc3ccc(N4CCNCC4)cc3)nc2[nH]1", "note": "[Compound 1-2, N4-(1H-indazol-6-yl)-N2-(4-(piperazin-1-yl)phenyl)-7H-pyrrolo[2,3-d]pyrimidine-2,4-diamine]", "IC50": "≤ 50"}
{"compound": "CC(=O)N1CCN(c2ccc(Nc3nc(Nc4ccc5[nH]ncc5c4)c4cc[nH]c4n3)cc2)CC1", "note": "[Compound 14-1, 1-(4-(4-(4-(1H-indazol-5-ylamino)-7H-pyrrolo[2,3-d]pyrimidin-2-ylamino)phenyl)piperazin-1-yl)ethanone]", "IC50": "≤ 50"}
{"compound": "CC(=O)N1CCN(c2ccc(Nc3nc(Nc4ccc5cn[nH]c5c4)c4c(C)c[nH]c4n3)cc2)CC1", "note": "[Compound 15-1, 1-(4-(4-(4-(1H-indazol-6-ylamino)-5-methyl-7H-pyrrolo[2,3-d]pyrimidin-2-ylamino)phenyl)piperazin-1-yl)ethanone]", "IC50": "≤ 50"}
{"compound": "CN(C)C(=O)C1CCN(c2ccc(Nc3nc(Nc4ccc5nc[nH]c5c4)c4cc[nH]c4n3)cc2)CC1", "note": "[Compound 18-1, 1-(4-(4-(1H-benzo[d]imidazol-6-ylamino)-7H-pyrrolo[2,3-d]pyrimidin-2-ylamino)phenyl)-N,N-dimethylpiperidine-4-carboxamide]", "IC50": "≤ 50"}
{"compound": "CS(=O)(=O)N1CCN(c2ccc(Nc3nc(Nc4ccc5cnn(S(C)(=O)=O)c5c4)c4cc[nH]c4n3)cc2)CC1", "note": "[Compound 8-2, N4-(1-(methylsulfonyl)-1H-indazol-6-yl)-N2-(4-(4-(methylsulfonyl)piperazin-1-yl)phenyl)-7H-pyrrolo[2,3-d]pyrimidine-2,4-diamine]", "IC50": "≤ 50"}
{"compound": "NS(=O)(=O)c1ccc(Nc2nc(Nc3ccc4cn[nH]c4c3)c3cc[nH]c3n2)cc1", "note": "[Compound 11-1, 4-(4-(1H-indazol-6-ylamino)-7H-pyrrolo[2,3-d]pyrimidin-2-ylamino)benzenesulfonamide]", "IC50": "≤ 50"}
{"compound": "NC(=O)c1ccc(Nc2nc(Nc3ccc4cn[nH]c4c3)c3cc[nH]c3n2)cc1", "note": "[Compound 12-1, 4-(4-(1H-indazol-6-ylamino)-7H-pyrrolo[2,3-d]pyrimidin-2-ylamino)benzamide]", "IC50": "≤ 50"}
{"compound": "c1cc2c(Nc3ccc4scnc4c3)nc(Nc3ccc4cn[nH]c4c3)nc2[nH]1", "note": "[Compound 19-1, N4-(benzo[d]thiazol-5-yl)-N2-(1H-indazol-6-yl)-7H-pyrrolo[2,3-d]pyrimidine-2,4-diamine]", "IC50": "≤ 50"}
{"compound": "CN1CCN(c2ccc(Nc3nc(Nc4ccc5cn[nH]c5c4)c4cc[nH]c4n3)cc2)CC1", "note": "[Compound 13-1, N4-(1H-indazol-6-yl)-N2-(4-(4-methylpiperazin-1-yl)phenyl)-7H-pyrrolo[2,3-d]pyrimidine-2,4-diamine]", "IC50": "≤ 50"}
{"compound": "CC(=O)N(C)c1ccc(Nc2nc(Nc3ccc4nc[nH]c4c3)c3cc[nH]c3n2)cc1", "note": "[Compound 17-1, N-(4-(4-(1H-benzo[D]imidazol-6-ylamino)-7H-pyrrolo[2,3-d]pyrimidin-2-ylamino)phenyl)-N-methylacetamide]", "IC50": "≤ 50"}
{"compound": "Cn1ncc2ccc(Nc3nc(Nc4ccc(N5CCNCC5)cc4)nc4[nH]ccc34)cc21", "note": "[Compound 22-1, N4-(1-methyl-1H-indazol-6-yl)-N2-(4-(piperazin-1-yl)phenyl)-7H-pyrrolo[2,3-d]pyrimidine-2,4-diamine]", "IC50": "≤ 50"}
{"compound": "Cc1n[nH]c2cc(Nc3nc(Nc4ccc(N5CCNCC5)cc4)nc4[nH]ccc34)ccc12", "note": "[Compound 2-2, N4-(3-methyl-1H-indazol-6-yl)-N2-(4-(piperazin-1-yl)phenyl)-7H-pyrrolo[2,3-d]pyrimidine-2,4-diamine]", "IC50": "≤ 50"}
{"compound": "C[S+]([O-])c1ccc(Nc2nc(Nc3ccc4cn[nH]c4c3)c3cc[nH]c3n2)cc1", "note": "(stereo not drawn) [Compound 10-2, N4-(1H-indazol-6-yl)-N2-(4-(methylsulfinyl)phenyl)-7H-pyrrolo[2,3-d]pyrimidine-2,4-diamine]", "IC50": "≤ 50"}
{"tested_on": "human washed platelets", "assay": "Inhibition of Convulxin-mediated platelet calcium mobilization in vitro", "type": "cell-based", "details": "125 ng/mL Convulxin", "experimental": "Inhibition of Convulxin-induced calcium mobilization was determined in human washed platelets using the FLIPR Calcium 3 Assay Kit (Molecular Devices, Sunnyvale, Calif.). For preparation of washed platelets, human venous blood was collected from healthy, drug-free volunteers into ACD (85 mM sodium citrate, 111 mM glucose, 71.4 mM citric acid) containing PGI2 (1.25 mL ACD containing 0.2 μM PGI2 final; PGI2 from Sigma, St. Louis, Mo.). Platelet-rich plasma (PRP) was prepared by centrifugation at 160×g for 20 minutes at room temperature. Washed platelets were prepared by centrifuging PRP for 10 minutes at 730×g and resuspending the platelet pellet in CGS (13 mM sodium citrate, 30 mM glucose, 120 mM NaCl; 2 mL CGS/10 mL original blood volume). The wash in CGS was repeated a second time, the platelets were collected by centrifugation at 730 g for 10 minutes and resuspended at a concentration of 3×10^8 platelets/mL in Hepes-Tyrode's buffer (10 mM Hepes, 138 mM NaCl, 5.5 mM glucose, 2.9 mM KCl, 12 mM NaHCO3, pH 7.4). This platelet suspension was allowed to rest for 45 minutes at room temperature before use in calcium mobilization assays.\nFor 96-well plate calcium-mobilization experiments, equal volumes of 3×10^8 washed platelets/mL were incubated with equal volumes of Calcium-3 Assay Reagent A resuspended in 1× Hank's Balanced Salt Solution, pH 7.4, 20 mM Hepes buffer. The total reaction volume of 0.2 mL/well included 1.5×10^8/mL washed platelet/Calcium-3 Assay reagent A mix, 10 μM Eptifibatide (Millennium Pharmaceuticals Inc, Cambridge, Mass.) and serial dilutions (1:3) of test compounds in 0.75% DMSO. DMSO alone was added to 1 well of each 8 set to allow for a maximal calcium-mobilization reading. After a 20 minute preincubation at room temperature, the 96-well microplate reader was loaded into the FlexStation (Molecular Devices, Sunnyvale, Calif.). The FlexStation experimental conditions for measuring calcium mobilization were set up using SOFTMax Pro. The settings used were as follows: Fluorescence parameters-assay mode: flex, excitation 485 nm, 525 nM with a cut-off of 515 nM; Parameters—PMT sensitivity-6, pipette height 230 μl, read time 2 minutes and 40 seconds, read intervals 2 seconds, temperature-23-25° C. After 18 seconds of baseline reading, calcium mobilization was initiated by the addition of Convulxin to a final concentration of 125 ng/mL. Inhibition of calcium mobilization was calculated as the maximum response observed in the presence of inhibitor, compared to that in the absence of inhibitor. IC50s were then derived by non-linear regression analysis.", "units": {"IC50": "µM"}}
{"compound": "CS(=O)(=O)c1ccc(Nc2nc(Nc3ccc4cn[nH]c4c3)c3cc[nH]c3n2)cc1", "note": "[Compound 9-1, N4-(1H-indazol-6-yl)-N2-(4-(methylsulfonyl)phenyl)-7H-pyrrolo[2,3-d]pyrimidine-2,4-diamine]", "IC50": "< 1"}
{"compound": "CS(=O)(=O)N1CCN(c2ccc(Nc3nc(Nc4ccc5cn[nH]c5c4)c4cc[nH]c4n3)cc2)CC1", "note": "[Compound 8-1, N4-(1H-indazol-6-yl)-N2-(4-(4-(methylsulfonyl)piperazin-1-yl)phenyl)-7H-pyrrolo[2,3-d]pyrimidine-2,4-diamine]", "IC50": "< 1"}
{"compound": "c1cc2c(Nc3ccc4cn[nH]c4c3)nc(Nc3ccc(N4CCNCC4)cc3)nc2[nH]1", "note": "[Compound 1-2, N4-(1H-indazol-6-yl)-N2-(4-(piperazin-1-yl)phenyl)-7H-pyrrolo[2,3-d]pyrimidine-2,4-diamine]", "IC50": "< 1"}
{"compound": "CC1(C)Oc2ccc(Nc3nc(Nc4ccc5cn[nH]c5c4)nc4[nH]ccc34)cc2NC1=O", "note": "[Compound 16-1, 6-(2-(1H-indazol-6-ylamino)-7H-pyrrolo[2,3-d]pyrimidin-4-ylamino)-2,2-dimethyl-2H-benzo[b][1,4]oxazin-3(4H)-one]", "IC50": "< 1"}
{"compound": "CS(=O)(=O)N1CCN(c2ccc(Nc3nc(Nc4ccc5cnn(S(C)(=O)=O)c5c4)c4cc[nH]c4n3)cc2)CC1", "note": "[Compound 8-2, N4-(1-(methylsulfonyl)-1H-indazol-6-yl)-N2-(4-(4-(methylsulfonyl)piperazin-1-yl)phenyl)-7H-pyrrolo[2,3-d]pyrimidine-2,4-diamine]", "IC50": "< 1"}
{"compound": "CC1(C)Oc2ccc(Nc3nc(Nc4ccc5c(c4)NC(=O)C(C)(C)O5)c4cc[nH]c4n3)cc2NC1=O", "note": "[Compound 3-1]", "IC50": "< 1"}
{"compound": "c1cc2c(Nc3ccc4cn[nH]c4c3)nc(Nc3ccc4cn[nH]c4c3)nc2[nH]1", "note": "[Compound 4-1, N2,N4-di(1H-indazol-6-yl)-7H-pyrrolo[2,3-d]pyrimidine-2,4-diamine]", "IC50": "< 1"}
{"compound": "Cc1n[nH]c2cc(Nc3nc(Nc4ccc(N5CCNCC5)cc4)nc4[nH]ccc34)ccc12", "note": "[Compound 2-2, N4-(3-methyl-1H-indazol-6-yl)-N2-(4-(piperazin-1-yl)phenyl)-7H-pyrrolo[2,3-d]pyrimidine-2,4-diamine]", "IC50": "< 1"}
